# Assay results taken from patent US4004028A, “Phenoxypropanolamines” (SmithKline Corporation, priority 1975, dated 1977).
# Legend:
# [1] = tested on: guinea pig tracheal chain preparations; assay: effect on spontaneous tone of guinea pig tracheal chain (ring) preparations, β-stimulant direct relaxant effect on airway smooth muscle; format: cell-based; conditions: for absolute separation ratio: atrial ED25 versus tracheal ED50, in vitro guinea pig preparations
# Excerpt: (§1) Two in vitro test systems used for determining selective β-stimulant activity are: (1) effect on spontaneous tone of guinea pig tracheal chain preparations as a measure of β-stimulant (direct relaxant) effect on airway smooth muscle, and (2) effect on rate of spontaneously beating right atria of the guinea pig as a measure of β-stimulant effect on cardiac muscle.
# guinea pig right atria = assay: effect on rate of spontaneously beating right atria of the guinea pig, β-stimulant effect on cardiac muscle; format: cell-based; conditions: Cavia porcellus, in vitro, read-out: ED25, increasing the rate of contraction of guinea pig right atria
# Excerpt: as §1
Structure (SMILES),"EC50 ([1]; Cavia porcellus, in vitro, guinea pig tracheal ring preparation, read-out: ED50, relaxes the spontaneous tone of guinea pig tracheal ring preparation) [µg/mL]",absolute separation ratio [1],"fold improvement of absolute separation ratio compared to d, l-isoproterenol ([1]; relative to d, l-isoproterenol (absolute separation ratio = 0.5)) [fold]",EC25 (guinea pig right atria) [µg/mL]
CC(C)(C)NCC(O)COc1ccc(O)c(NS(C)(=O)=O)c1 (centres unmarked) [3-(4-hydroxy-3-methanesulfonamidophenoxy)-1-(tert-butylamino)-2-propanol],0.00219,186,372,0.409
"CC(C)NCC(O)c1ccc(O)c(O)c1 (stereo not drawn) [d, l-isoproterenol, reference compound]",–,0.5,–,–
